Experimental data: ChEMBL document CHEMBL5380773, “Novel Feleucin-K3-Derived Peptides Modified with Sulfono-γ-AA Building Blocks Targeting Pseudomonas aeruginosa and Methicillin-Resistant Staphylococcus aureus Infections” (J Med Chem, 2023)
The source made the active and inactive calls. The calls are words filed in the database; no cut-off is given here. Numbered stars: 1 amine (or outer) side, 2 acyl side, 3 side chain; on linkers, the order of the positions; unused ones are H or OH. Square brackets hold non-standard residues; d marks the D form. Peptide text beside a SMILES is read from it. * marks the point of attachment. X26 = O=C(O)c1cc(NC(=S)c2ccc(S(=O)(=O)*)cc2)ccc1-c1c2ccc(=O)cc-2oc2cc(O)ccc12; X21 = CC(C)c1cc(C(C)C)c(S(=O)(=O)N(CC(N)=O)C[C@H](Cc2ccccc2)N*)c(C(C)C)c1; X9 = NC(=O)CN(C[C@H](Cc1ccccc1)N*)S(=O)(=O)c1ccccc1[N+](=O)[O-]; X16 = CC(C)C[C@@H](CN(CC(N)=O)S(=O)(=O)c1ccc(Cl)cc1)N*; X25 = CC(C)C[C@@H](CN(CC(N)=O)S(=O)(=O)c1cccc(Cl)c1)N*; X22 = CC(C)C[C@@H](CN(CC(N)=O)S(=O)(=O)c1ccc(F)cc1)N*; Benzenesulfonyl(4-OMe) = COc1ccc(S(=O)(=O)*)cc1; Benzenesulfonyl(4-F) = O=S(=O)(c1ccc(F)cc1)*; X5 = CC(C)c1cc(C(C)C)c(S(=O)(=O)*)c(C(C)C)c1; X3 = N[C@@H](Cc1ccccc1)CN(CC(=O)[*:2])[*:1]; X2 = CC(C)C[C@H](N)CN(CC(=O)[*:2])[*:1]; X10 = O=[N+]([O-])c1ccc(S(=O)(=O)*)cc1; Brosyl = O=S(=O)(c1ccc(Br)cc1)*; X20 = O=S(=O)(c1ccc(Cl)cc1)*; Tos = Cc1ccc(S(=O)(=O)*)cc1; X4 = O=S(=O)(c1cccc(Cl)c1)*

Assays:
Staphylococcus aureus [1] = assay: Antimicrobial activity against methicillin resistant Staphylococcus aureus ATCC 33591 infected in BALB/c mouse assessed as reduction in sessile bacteria attached on catheters surface at 0.25 to 1 mg/kg infected with bacteria for 2 hrs prior to compound addition on 1, 24 and 48 hrs and measured after 72 hrs […]; assay type: functional, organism-based; conditions: dose 0.25-1 mg/kg
Cell membrane = assay: Induction of membrane disruption in Pseudomonas aeruginosa ATCC 27853 after 30 mins by confocal laser scanning microscopic analysis; assay type: subcellular
Staphylococcus aureus [2] = assay: Induction of resistant development in Staphylococcus aureus ATCC 25923 assessed as fold increase by serial passage assay; assay type: functional
Staphylococcus aureus [3] = assay: Induction of resistant development in methicillin resistant Staphylococcus aureus ATCC 33591 assessed as fold increase by serial passage assay; assay type: functional
Erythrocyte = assay: Hemolytic activity against mouse red blood cells incubated for 1 hr; assay type: toxicity, cell-based
[4] = Stability in mouse serum assessed as half life incubated for 6 hrs by HPLC analysis; assay type: ADME, cell-free
Pseudomonas aeruginosa [5] = assay: Antimicrobial activity against multidrug resistant Pseudomonas aeruginosa ATCC 27853 assessed as fold increase incubated for 18 hrs by microdilution method; assay type: functional
Pseudomonas aeruginosa [6] = assay: Induction of resistant development in Pseudomonas aeruginosa ATCC 27853 assessed as fold increase in MIC after 20 days; assay type: functional; conditions: time 20 day

Compound | MHC (Erythrocyte) | other results
CN[C@H](CC(C)C)C(=O)N[C@H]1C(=O)N[C@@H](CC(N)=O)C(=O)N[C@H]2C(=O)N[C@H]3C(=O)N[C@H](C(=O)N[C@H](C(=O)O)c4cc(O)cc(O)c4-c4cc3ccc4O)[C@H](O)c3ccc(c(Cl)c3)Oc3cc2cc(c3O[C@@H]2O[C@H](CO)[C@@H](O)[C@H](O)[C@H]2O[C@H]2C[C@](C)(N)[C@H](O)[C@H](C)O2)Oc2ccc(cc2Cl)[C@H]1O |  | Activity (Staphylococcus aureus [1]): Active
CC(C)C[C@H](N)CN(CC(=O)N[C@@H](CCCCN)C(=O)N[C@@H](CC(C)C)C(=O)N[C@@H](CC(C)C)C(=O)N[C@@H](CCCCN)C(=O)N[C@@H](CCCCN)C(=O)N[C@@H](CC(C)C)C(=O)N[C@@H](CC(C)C)C(N)=O)S(=O)(=O)c1ccc(C(=S)Nc2ccc(-c3c4ccc(=O)cc-4oc4cc(O)ccc34)c(C(=O)O)c2)cc1 (X26-[X2]KLLKKLL-NH2) |  | Activity (Cell membrane): Active
CC1(C)S[C@@H]2[C@H](NC(=O)[C@H](N)c3ccc(O)cc3)C(=O)N2[C@H]1C(=O)O [AMOXICILLIN] |  | fold change (FC) (Staphylococcus aureus [2]): 4096; fold change (FC) (Staphylococcus aureus [3]): 4096
Cc1ccc(S(=O)(=O)N(CC(=O)N[C@@H](CCCCN)C(=O)N[C@@H](CC(C)C)C(=O)N[C@@H](CC(C)C)C(=O)N[C@@H](CCCCN)C(=O)N[C@@H](CCCCN)C(=O)N[C@@H](CC(C)C)C(=O)N[C@@H](CC(C)C)C(N)=O)C[C@@H](N)Cc2ccccc2)cc1 (Tos-[X3]KLLKKLL-NH2) | 256 µg/mL | half-life [4]: 6.97 h
CC(C)C[C@@H](CN(CC(N)=O)S(=O)(=O)c1cccc(Cl)c1)NC(=O)[C@H](CCCCN)NC(=O)[C@H](CCCCN)NC(=O)[C@H](CC(C)C)NC(=O)[C@H](CC(C)C)NC(=O)[C@H](CCCCN)NC(=O)[C@H](CC(C)C)NC(=O)[C@@H](N)Cc1ccccc1 (H-FLKLLKK-X25) | 256 µg/mL | 
C[C@@H](O)[C@H]1C(=O)N2C(C(=O)O)=C(SCCNC=N)C[C@H]12 [IMIPENEM ANHYDROUS] |  | fold change (FC) (Pseudomonas aeruginosa [5]): 1; fold change (FC) (Pseudomonas aeruginosa [6]): 16
CC(C)C[C@H](NC(=O)[C@H](CC(C)C)NC(=O)[C@H](CCCCN)NC(=O)[C@H](CCCCN)NC(=O)[C@H](CC(C)C)NC(=O)[C@H](CC(C)C)NC(=O)[C@H](CCCCN)NC(=O)CN(C[C@@H](N)Cc1ccccc1)S(=O)(=O)c1cccc(Cl)c1)C(N)=O (X4-[X3]KLLKKLL-NH2) | 128 µg/mL | 
COc1ccc(S(=O)(=O)N(CC(=O)N[C@@H](CCCCN)C(=O)N[C@@H](CC(C)C)C(=O)N[C@@H](CC(C)C)C(=O)N[C@@H](CCCCN)C(=O)N[C@@H](CCCCN)C(=O)N[C@@H](CC(C)C)C(=O)N[C@@H](CC(C)C)C(N)=O)C[C@@H](N)CC(C)C)cc1 ({Benzenesulfonyl(4-OMe)}-[X2]KLLKKLL-NH2) | 256 µg/mL | 
CC(C)C[C@H](N)CN(CC(=O)N[C@@H](CCCCN)C(=O)N[C@@H](CC(C)C)C(=O)N[C@@H](CC(C)C)C(=O)N[C@@H](CCCCN)C(=O)N[C@@H](CCCCN)C(=O)N[C@@H](CC(C)C)C(=O)N[C@@H](CC(C)C)C(N)=O)S(=O)(=O)c1c(C(C)C)cc(C(C)C)cc1C(C)C (X5-[X2]KLLKKLL-NH2) | 32 µg/mL | 
CC(C)(O/N=C(\C(=O)N[C@@H]1C(=O)N2C(C(=O)[O-])=C(C[n+]3ccccc3)CS[C@H]12)c1csc(N)n1)C(=O)O [CEFTAZIDIME] |  | fold change (FC) (Pseudomonas aeruginosa [6]): 256
CC(C)C[C@H](NC(=O)[C@H](CC(C)C)NC(=O)[C@H](CCCCN)NC(=O)[C@H](CCCCN)NC(=O)[C@H](CC(C)C)NC(=O)[C@H](CC(C)C)NC(=O)[C@H](CCCCN)NC(=O)CN(C[C@@H](N)Cc1ccccc1)S(=O)(=O)c1ccc(F)cc1)C(N)=O ({Benzenesulfonyl(4-F)}-[X3]KLLKKLL-NH2) | 256 µg/mL | 
CC(C)C[C@H](NC(=O)[C@H](CC(C)C)NC(=O)[C@H](CCCCN)NC(=O)[C@H](CCCCN)NC(=O)[C@H](CC(C)C)NC(=O)[C@H](CC(C)C)NC(=O)[C@H](CCCCN)NC(=O)CN(C[C@@H](N)Cc1ccccc1)S(=O)(=O)c1ccc(Cl)cc1)C(N)=O (X20-[X3]KLLKKLL-NH2) | 64 µg/mL | 
CC(C)C[C@H](NC(=O)[C@H](CC(C)C)NC(=O)[C@H](CCCCN)NC(=O)[C@H](CC(C)C)NC(=O)[C@@H](N)Cc1ccccc1)C(=O)N[C@@H](CCCCN)C(=O)N[C@@H](CCCCN)C(=O)N[C@@H](Cc1ccccc1)CN(CC(N)=O)S(=O)(=O)c1ccccc1[N+](=O)[O-] (H-FLKLLKK-X9) | 256 µg/mL | 
CC(C)C[C@@H](CN(CC(N)=O)S(=O)(=O)c1ccc(F)cc1)NC(=O)[C@H](CCCCN)NC(=O)[C@H](CCCCN)NC(=O)[C@H](CC(C)C)NC(=O)[C@H](CC(C)C)NC(=O)[C@H](CCCCN)NC(=O)[C@H](CC(C)C)NC(=O)[C@@H](N)Cc1ccccc1 (H-FLKLLKK-X22) | 256 µg/mL | 
CC(C)C[C@@H](CN(CC(N)=O)S(=O)(=O)c1ccc(Cl)cc1)NC(=O)[C@H](CCCCN)NC(=O)[C@H](CCCCN)NC(=O)[C@H](CC(C)C)NC(=O)[C@H](CC(C)C)NC(=O)[C@H](CCCCN)NC(=O)[C@H](CC(C)C)NC(=O)[C@@H](N)Cc1ccccc1 (H-FLKLLKK-X16) | 256 µg/mL | 
CC(C)C[C@H](NC(=O)[C@H](CC(C)C)NC(=O)[C@H](CCCCN)NC(=O)[C@H](CCCCN)NC(=O)[C@H](CC(C)C)NC(=O)[C@H](CC(C)C)NC(=O)[C@H](CCCCN)NC(=O)CN(C[C@@H](N)Cc1ccccc1)S(=O)(=O)c1ccc([N+](=O)[O-])cc1)C(N)=O (X10-[X3]KLLKKLL-NH2) | 256 µg/mL | 
C[C@H]1[C@H](NC(=O)/C(=N\OC(C)(C)C(=O)O)c2csc(N)n2)C(=O)N1S(=O)(=O)O [AZTREONAM] |  | fold change (FC) (Pseudomonas aeruginosa [5]): 2; fold change (FC) (Pseudomonas aeruginosa [6]): 32
H-FLKLLKKLL-NH2 | 256 µg/mL | half-life [4]: 1.28 h
CC(C)C[C@H](NC(=O)[C@H](CC(C)C)NC(=O)[C@H](CCCCN)NC(=O)[C@H](CCCCN)NC(=O)[C@H](CC(C)C)NC(=O)[C@H](CC(C)C)NC(=O)[C@H](CCCCN)NC(=O)CN(C[C@@H](N)Cc1ccccc1)S(=O)(=O)c1ccc(Br)cc1)C(N)=O (Brosyl-[X3]KLLKKLL-NH2) | 64 µg/mL | 
CC(C)C[C@H](N)CN(CC(=O)N[C@@H](CCCCN)C(=O)N[C@@H](CC(C)C)C(=O)N[C@@H](CC(C)C)C(=O)N[C@@H](CCCCN)C(=O)N[C@@H](CCCCN)C(=O)N[C@@H](CC(C)C)C(=O)N[C@@H](CC(C)C)C(N)=O)S(=O)(=O)c1ccc(Cl)cc1 (X20-[X2]KLLKKLL-NH2) | 256 µg/mL | 
CC(C)C[C@H](NC(=O)[C@H](CC(C)C)NC(=O)[C@H](CCCCN)NC(=O)[C@H](CC(C)C)NC(=O)[C@@H](N)Cc1ccccc1)C(=O)N[C@@H](CCCCN)C(=O)N[C@@H](CCCCN)C(=O)N[C@@H](Cc1ccccc1)CN(CC(N)=O)S(=O)(=O)c1c(C(C)C)cc(C(C)C)cc1C(C)C (H-FLKLLKK-X21) | 32 µg/mL | 
